# Assay results published in patent US9023876B2, “Compounds and methods for regulating integrins” (Adhaere Pharmaceuticals, Inc., priority 2010, dated 2015).
# How the values were obtained:
# integrin CD11b/CD18 [1] = molecular target: T1, integrin CD11b/CD18 (Homo sapiens, UniProt P11215); test: K562 cell adhesion assay, K562 CD11b/CD18 cells on immobilized fibrinogen (Fg); type: cell-based
# T1 construct: expressed in transfected cells; host or cells: K562
# Method: (§1) Cell adhesion assays with immobilized ligands were performed as previously described. Assays with all different K562 cell lines (K562, K562 CD11b/CD18 and K562 E320A) were performed in an identical fashion. Briefly, 384-well Highbind microtiter plates were coated with a 30 μL solution of ligand in Phosphate Buffered Saline, pH 7.4 containing 1 mM each of Ca^2+ and Mg^2+ ions (PBS^++) overnight at 4° C. Ligand Fg was coated at a concentration of […] and iC3b at […]. Heterodimer specific mAb IB4 (ascites) was coated at a 1:100 dilution. Subsequently, the non-specific sites in the wells were blocked by incubation with 1% non-fat milk in Tris Buffered Saline (TBS), pH 7.4, at room temperature for 1 h, except for the neutrophil assay, where the wells were blocked with TBS containing 1% gelatin. Next, the wells were washed three times with TBS. K562 cells were suspended in the assay buffer (TBS containing 1 mM each of Ca^2+ and Mg^2+ ions (TBS^++)) and were transferred to the ligand-coated wells (30,000 cells/well). Stock solution of the leukadherin family of small molecule agonists was prepared by dissolving the compounds in DMSO at a concentration of 2-10 mM. Final concentration of DMSO in the assay was approximately 1%. […] Cells remaining adherent were fixed using formaldehyde and were quantitated using imaging microscopy, as previously described. […]
# [2] = molecular target: T2, mutant integrin CD11bE320A/CD18 (Homo sapiens, UniProt P11215, E336A); test: Adhesion of K562 E320A cells to immobilized Fg; type: cell-based
# T2 construct: expressed in transfected cells; host or cells: K562
# Method: K562 cells (ATCC) stably transfected with wild-type integrin CD11b/CD18 (K562 CD11b/CD18) have been described previously. Mutant CD11bE320A has been described previously. K562 cells stably transfected with mutant integrin CD11bE320A/CD18 (K562 E320A) were generated according to literature protocols. All cell lines were maintained in Iscove's Modified Dulbecco's Medium (IMDM) supplemented with 10% heat-inactivated fetal bovine serum, 50 IU/ml penicillin and streptomycin and 0.5 mg/ml G418.
# Cell adhesion assays with immobilized ligands were performed as previously described. Assays with all different K562 cell lines (K562, K562 CD11b/CD18 and K562 E320A) were performed in an identical fashion. Briefly, 384-well Highbind microtiter plates were coated with a 30 μL solution of ligand in Phosphate Buffered Saline, pH 7.4 containing 1 mM each of Ca^2+ and Mg^2+ ions (PBS^++) overnight at 4° C. Ligand Fg was coated at a concentration of […] and iC3b at […]. Heterodimer specific mAb IB4 (ascites) was coated at a 1:100 dilution. […] Cells remaining adherent were fixed using formaldehyde and were quantitated using imaging microscopy, as previously described. […]
# integrin CD11b/CD18 [3] = molecular target: T1, integrin CD11b/CD18; test: Flow cytometry, binding of activation sensitive mAb24 to K562 CD11b/CD18 cells; type: cell-based
# Method: Flow cytometric analysis of K562 cells for integrin CD11b/CD18 cell surface expression was performed using published protocols. Briefly, cells were suspended in the assay buffer (TBS containing 1 mM each of Ca^2+ and Mg^2+ ions (TBS^++) and 0.1% BSA). […] Subsequently, the cells were washed three times with the assay buffer and incubated with goat anti-mouse-APC (1 mg/ml, Invitrogen) for 20 min at 4° C. Cells were washed twice with the assay buffer and analyzed using FACSCaliber flow cytometer (BD Biosciences, CA), counting at least 10,000 events. Data was analyzed using the CellQuest software (BD Biosciences). Assays were performed in triplicate and the data shown is from one of at least three independent experiments.
# To identify binding site of LA1-3, which are predicted to bind the ligand-binding αA (or α1) domain in CD11b/CD18 [33, 39, 76], we generated K562 cells stably expressing mutant integrin CD11bE320A/CD18 (K562 E320A). The highly conserved residue E320 in the linker following the activation-sensitive α7-helix in the CD11b A-domain (αA-domain) acts as an endogenous ligand of the CD18 vWFA-domain (βA- or I-domain). The E320A mutation abolishes agonist Mn^2+-ion mediated increase in ligand-binding by CD11b/CD18. However, stabilization of αA in a high-affinity conformation by additional activating mutations overcomes this deficit and induces ligand binding in the E320A mutant. […]
# integrin CD11b/CD18 [4] = molecular target: T1, integrin CD11b/CD18; test: K562 CD11b/CD18 cell adhesion to immobilized iC3b; type: cell-based; conditions: increasing amounts of compound
# Method: as §1
# murine neutrophils = test: Neutrophil chemotaxis assay in Zigmond chamber, fMLP gradient; type: cell-based, mouse; conditions: vs DMSO
# Method: Neutrophil chemotaxis on 2D surfaces was performed using Zigmond chamber (Neuro Probe) as described on acid cleaned glass or Fg coated glass coverslips. Cell migration was allowed in a gradient of […] bacterial peptide formyl-methionyl-leucyl-phenylalanine (fMLP, Sigma), in the absence or presence of leukadherins ([…]). Cell migration was recorded at every 30 sec interval for a period of 25 min using a Nikon Eclipse 90i inverted microscope. Images were acquired with a Nikon DS camera using a PLAN APO 20X differential interference contrast (DIC) microscopy objective and captured into Nikon Imaging software. Analysis of neutrophil migration was performed with the motile population that had moved more than 10 μm using ImageJ software (NIH, USA) with manual cell tracking using the Ibidi chemotaxis and migration tool plugin for ImageJ. Migration velocity and the total displacement (distance from origin) were also analyzed. Quantitation was performed using at least 50 independent cells per condition from at least three independent experiments.
# Leukocyte chemotaxis on 2D surfaces involves integrin-mediated sequential adhesion and de-adhesion steps [77]. […] To test if increased cell-adhesion by leukaderins affects cell migration, we used murine neutrophils chemotaxing in response to a gradient of chemokine peptide formyl-Met-Leu-Phe (fMLP). […]
structure (smiles),measurement,setting,value
O=C(O)c1ccc(-c2ccc(/C=C3\SC(=S)N(Cc4ccccc4)C3=O)o2)cc1 [LA1],EC50,"integrin CD11b/CD18 [1]; K562 CD11b/CD18 cells, immobilized Fg, read-out: EC50 (effective concentration for 50% increase in adhesion), CD11b/CD18 dependent cell adhesion to Fg",4 µM
same,relative affinity for CD11b/CD18 compared with IMB-10,integrin CD11b/CD18 [1]; cell-based adhesion assay,higher affinity
same,binding of K562 E320A to Fg,[2],selectively increased
same,binding of activation sensitive mAb24 to K562 CD11b/CD18 cells,integrin CD11b/CD18 [3],increase
same,K562 CD11b/CD18 cells adhering to immobilized iC3b,integrin CD11b/CD18 [4],increase binding of CD11b/CD18 to iC3b in a dose-dependent fashion
same,lateral migration of neutrophils,murine neutrophils,significant decrease
same,migration velocity of neutrophils,murine neutrophils,significant decrease
